Drawing on the RepoRT retention time repository (doi:10.1016/j.chroma.2015.11.014), this text covers LC retention time for 98 molecules.

Structures are written as SMILES.

This data set is described as follows: RP, Agilent ZORBAX Eclipse Plus C18, 150 × 2.1 mm, 3.5 µm, 40 °C, 0.3 mL/min, estimated dead time 1.1 min; A: water + 0.1% formic acid; B: acetonitrile + 0.1% formic acid; gradient (min/%B) 0/2 1/2 2/20 16.5/98 22/98. To be noted: stereoisomer not certain.

On to `O=C([O-])CC[P+](c1ccccc1)(c1ccccc1)c1ccccc1`, for which the LC retention time was 6.75 min.
For `CCCCCCCCCCCCCCCC[N+](C)(C)Cc1ccccc1`, the LC retention time is 13.9 min.
In the case of `c1ccc(C2=NCCN2)cc1`, the LC retention time is 4.35 min.
Regarding `CCCCCCCCCCCCN`, the LC retention time is 9.47 min.
Consider `CC(=O)OCC[N+](C)(C)C`, for which the LC retention time is 2.06 min.
As to `CC1(C)CC(=O)CC(C)(C)N1`, the LC retention time is 2.82 min.
Regarding `CCCCC[N+](CCCCC)(CCCCC)CCCCC`, the LC retention time was 11.3 min.
Consider `CCC1OC(=O)C(C)C(OC2CC(C)(OC)C(O)C(C)O2)C(C)C(OC2OC(C)CC(N(C)C)C2O)C(C)(OC)CC(C)C(=O)C(C)C(O)C1(C)O` (stereo not drawn), for which the LC retention time was 8.86 min.
For the molecule `CC(C)(C)CC(C)(C)c1ccc(OCCOCC[N+](C)(C)Cc2ccccc2)cc1`, the LC retention time was 11.5 min.
With `CC12CCC3c4ccc(O)cc4CCC3C1CCC2O` (stereo not drawn) the figure was 10.4 min; with `CC(C)(C)NCC(O)COc1cccc2c1CC(O)C(O)C2` (stereo not drawn), 5.13 min; with `COC12C(COC(N)=O)C3=C(C(=O)C(C)=C(N)C3=O)N1CC1NC12` (stereo not drawn), 5.59 min.
With `COc1ccccc1Oc1c(NS(=O)(=O)c2ccc(C(C)(C)C)cc2)nc(-c2ncccn2)nc1OCCO` the figure was 12.1 min; with `COCC(=O)Nc1cc(Sc2ccccc2)ccc1N=C(NC(=O)OC)NC(=O)OC`, 13.1 min; with `Nc1ccccc1C[P+](c1ccccc1)(c1ccccc1)c1ccccc1`, 8.43 min.
For `c1ccc2sc(NC3CCCCC3)nc2c1` the value was 9.08 min.
With `CCOc1nc2cccc(C(=O)O)c2n1Cc1ccc(-c2ccccc2-c2nn[nH]n2)cc1`, the LC retention time was 10 min.
With `Nc1cccc2c1CN(C1CCC(=O)NC1=O)C2=O` (stereo not drawn) the figure was 5.24 min; with `CCCCCCCCCCCCCC[P+](CCCCCC)(CCCCCC)CCCCCC`, 17.1 min.
Take `CC12CCC(=O)C=C1CCC1C2C(O)CC2(C)C1CCC2(O)C(=O)CO` (stereo not drawn): the LC retention time is 8.32 min.
For `O=C1c2ccccc2C(=O)C1c1ccccc1`, the LC retention time was 14.2 min.
`O=C1CC2(CCCCC2)C(=O)N1`: the LC retention time is 7.4 min.
In the case of `Cc1c(N)c(=O)n(-c2ccccc2)n1C`, the LC retention time was 4.78 min.
Turning to `C#CCC1=C(C)C(OC(=O)C2C(C=C(C)C)C2(C)C)CC1=O` (stereo not drawn), the LC retention time is 14.9 min.
For the molecule `CCCCCCCCCC(=O)N(C)C`, the LC retention time was 13.6 min.
For `Nc1ncnc2c1ncn2CCOCP(=O)(O)O` the value was 2.12 min; for `CCC1CCCC(OC2CCC(N(C)C)C(C)O2)C(C)C(=O)C2=CC3C(C=CC4CC(OC5OC(C)C(OC)C(OC)C5OC)CC43)C2CC(=O)O1` (stereo not drawn), 10.4 min.
With `COC(=O)Nc1ccccc1` the figure was 8.47 min; with `CC(C)[P+](c1ccccc1)(c1ccccc1)c1ccccc1`, 7.72 min.
Take `CCC(C(=O)O)N1CCCC1=O` (stereo not drawn): the LC retention time was 5.7 min.
With `COC1CC(CC2CCC(C)C(C(C)C(=O)O)O2)OC2(OC(C)(C3CCC(C)(C4OC(C5OC(O)(CO)C(C)CC5C)CC4C)O3)CC2C)C1C` (stereo not drawn), the LC retention time was 21.2 min.
Regarding `Cn1c(N)nc2nc[nH]c2c1=O`, the LC retention time is 2.34 min.
For `Nc1cccc2[nH]c(-c3ccccc3)nc12` the value was 5.28 min; for `CC(=O)C1(O)CCC2C3CC(C)C4=CC(=O)CCC4(C)C3CCC21C` (stereo not drawn), 12.5 min.
Regarding `CCOC(=O)c1ccc(O)c([N+](=O)[O-])c1`, the LC retention time was 10.7 min.
As for `CCCCCC[N+](C)(C)Cc1ccccc1`, the LC retention time was 7.46 min.
In the case of `On1nnc2ccccc21`, the LC retention time was 5.24 min.
With `CCCSc1ccc2nc(NC(=O)OC)[nH]c2c1`, the LC retention time was 8.55 min.
With `CCCCCCCCCCCCOC(=O)c1cc(O)c(O)c(O)c1`, the LC retention time is 16 min.
As for `O=C(NC1CCCCC1)N(Cc1ccccc1)Cc1ccccc1`, the LC retention time is 14.1 min.
On to `CNC(=O)N(C)c1nc2ccccc2s1`, for which the LC retention time is 9.78 min.
For the molecule `CC1(C)SC2C(NC(=O)C(N)c3ccc(O)cc3)C(=O)N2C1C(=O)O` (stereo not drawn), the LC retention time is 4.71 min.
As to `OC(c1ccccc1)(c1ccccc1)C1CCNCC1`, the LC retention time was 6.64 min.
For `CCCCCCCCCCCCCC[N+](C)(C)CCCCCCCCCCCCCC` the value was 16.9 min; for `Cc1cccc(C(=O)O)c1`, 8.59 min; for `CC(C)c1nc(CN(C)C(=O)NC(C(=O)NC(Cc2ccccc2)CC(O)C(Cc2ccccc2)NC(=O)OCc2cncs2)C(C)C)cs1` (stereo not drawn), 12.7 min.
For `CN1CCN2c3ncccc3Cc3ccccc3C2C1` (stereo not drawn), the LC retention time is 5.46 min.
Take `Cn1c(=O)c2c(ncn2C)n(C)c1=O`: the LC retention time was 5.51 min.
Take `O=C(O)c1ccc(-c2ccccc2-c2nn[nH]n2)cc1`: the LC retention time is 8.03 min.
Take `CC1=CC(=O)NS(=O)(=O)O1`: the LC retention time was 4.12 min.
For `COc1ccc2c3c1OC1C(=O)C=CC4C(C2)N(C)CCC314` (stereo not drawn) the value was 5.06 min; for `CC(Cn1cnc2c(N)ncnc21)OCP(=O)(O)O` (stereo not drawn), 2.77 min; for `CC(C)c1ccccc1OP(=O)(Oc1ccccc1)Oc1ccccc1C(C)C`, 17.4 min.
For the molecule `N=C(N)c1ccc(OCCCCCCOc2ccc(C(=N)N)cc2)cc1`, the LC retention time is 5.92 min.
For `COc1ccc(CCN(C)CCCC(C#N)(c2ccc(OC)c(OC)c2)C(C)C)cc1OC` (stereo not drawn) the value was 8.54 min; for `O=c1[nH]c(=O)c2ccccc2[nH]1`, 5.39 min.
For the molecule `Cc1cc2n[nH]nc2cc1C`, the LC retention time is 8.01 min.
In the case of `NCCCCC(NC(CCc1ccccc1)C(=O)O)C(=O)N1CCCC1C(=O)O` (stereo not drawn), the LC retention time is 5.18 min.
With `CNCC(CC(=O)O)CC(C)C` (stereo not drawn) the figure was 4.84 min; with `COC(=O)Nc1cccc(N)c1`, 4.29 min.
In the case of `O=C1OC2(c3ccc(O)cc3Oc3cc(O)ccc32)c2ccccc21`, the LC retention time was 9.53 min.
Consider `NC(=O)N1c2ccccc2CC(=O)c2ccccc21`, for which the LC retention time is 8.32 min.
For `CC(C)Cc1ccc(C(C)C(=O)O)cc1` (stereo not drawn) the value was 12.8 min; for `c1ccc2n[nH]nc2c1`, 5.88 min.
In the case of `CN(C)c1ccc(C(=C2C=CC(N(C)C)C=C2)c2ccccc2)cc1` (stereo not drawn), the LC retention time was 9.29 min.
Consider `S=P(c1ccccc1)(c1ccccc1)c1ccccc1`, for which the LC retention time is 14.5 min.
For `c1ccc(CNCc2ccccc2)cc1` the value was 6 min; for `O=C([O-])CCC[P+](c1ccccc1)(c1ccccc1)c1ccccc1`, 7.19 min; for `CCC(CC)COC(=O)C(C)NP(=O)(OCC1OC(C#N)(c2ccc3c(N)ncnn23)C(O)C1O)Oc1ccccc1` (stereo not drawn), 9.97 min.
For `CN1C(C(=O)Nc2ccccn2)=C(O)c2sccc2S1(=O)=O` the value was 7.36 min.
For `C[N+](C)(CCOc1ccccc1)Cc1ccccc1`, the LC retention time is 7.14 min.
With `CN(C)C1C(=O)C(C(N)=O)=C(O)C2(O)C(=O)C3=C(O)c4c(O)cccc4C(C)(O)C3CC12` (stereo not drawn) the figure was 5.46 min; with `Cc1cc(=O)n(-c2ccccc2)n1C`, 6.26 min; with `Cc1ccc(S(=O)(=O)O)cc1`, 5.4 min.
`CCCCCCCCCCCCCC(=O)OCC(O)COP(=O)([O-])OCC[N+](C)(C)C` (stereo not drawn): the LC retention time was 12.7 min.
On to `COCCOCCOCCOCCOC`, for which the LC retention time is 6.01 min.
As to `CCOC(=O)C(CCc1ccccc1)NC(C)C(=O)N1C(C(=O)O)CC2CCCC21` (stereo not drawn), the LC retention time was 7.85 min.
For `COc1ccc(C(CN)C2(O)CCCCC2)cc1` (stereo not drawn) the value was 6.32 min; for `CC1(C)SC2C(NC(=O)C(N)c3ccccc3)C(=O)N2C1C(=O)O` (stereo not drawn), 5.37 min.
In the case of `NC(Cc1ccc(O)cc1)C(=O)O` (stereo not drawn), the LC retention time is 2.61 min.
As for `CCCCCCCCCCC(C(=O)OCCCCCC)[N+](C)(C)Cc1ccccc1` (stereo not drawn), the LC retention time was 13.6 min.
With `Nc1nc2c(ncn2COCC(=O)O)c(=O)[nH]1` the figure was 2.92 min; with `CCCCCCCCc1ccc(CCC(N)(CO)CO)cc1`, 10.2 min.
With `CCCCCCCCCCCC[N+](C)(C)CCOc1ccccc1` the figure was 12 min; with `c1ccc2[nH]c(-c3cscn3)nc2c1`, 5.2 min; with `Cn1cnc([N+](=O)[O-])c1Sc1ncnc2nc[nH]c12`, 5.37 min.
On to `CC(N)c1nc2ccccc2s1` (stereo not drawn), for which the LC retention time was 5.16 min.
With `COC(=O)CCCCCCCCC(=O)OC1CC(C)(C)N(C)C(C)(C)C1`, the LC retention time was 8.34 min.
For `CNCC(c1ccc(OC)cc1)C1(O)CCCCC1` (stereo not drawn) the value was 6.44 min; for `Cc1cn(C2CC(N=[N+]=[N-])C(CO)O2)c(=O)[nH]c1=O` (stereo not drawn), 5.9 min; for `O=C(c1ccccc1)c1ccccc1O`, 13 min.
As for `Cc1ccnc(NS(=O)(=O)c2ccc(N)cc2)n1`, the LC retention time is 5.77 min.
As to `Nc1nc2ccccc2[nH]1`, the LC retention time was 4.79 min.
For the molecule `NC(=O)N1c2ccccc2CCc2ccccc21`, the LC retention time is 9.23 min.
As for `CCc1cccc(C)c1N(C(=O)CS(=O)(=O)O)C(C)COC` (stereo not drawn), the LC retention time is 8.25 min.
Take `COCP(=O)(c1ccccc1)c1ccccc1`: the LC retention time is 8.67 min.
As for `O=P(O)(O)Cc1ccccc1`, the LC retention time was 5.04 min.
As for `CCC1OC(=O)CC(O)C(C)C(OC2OC(C)C(OC3CC(C)(O)C(O)C(C)O3)C(N(C)C)C2O)C(CC=O)CC(C)C(=O)C=CC(C)=CC1COC1OC(C)C(O)C(OC)C1OC` (stereo not drawn), the LC retention time was 8.18 min.
